From patent US11357786B2, “Synthetic disugar hydrocarbons as natural analogs to control microbial behaviors” (Syracuse University, priority 2014, dated 2022)

Assays:
PAO1 biofilm = experiment: Crystal violet based static biofilm inhibition assay, DSHs in LB media (Examples 2 and 4); assay type: cell-based, Pseudomonas aeruginosa; conditions: for Anti-biofilm activity (biofilm inhibition): concentration not given; for Inhibition of PAO1 biofilm in presence of pili peptide PAO(128-144)ox: agent 85 μM + pili peptide 85 μM; for Inhibition of PAO1 biofilm in presence of scrambled pili peptide: agent 85 μM + scrambled pili peptide 85 μM
Procedure, shortened: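 PAO1 subculture (OD600 ~0.1) was grown statically in LB at 37° C for 24 h with or without DSHs (screened at 160 μM). Surface-attached biofilm was then stained with 0.1% crystal violet, solubilised in 30% AcOH and read at 600 nm. Values are the mean of 4 wells.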

wild type PAO1 = experiment: Swarming motility of wild type PAO1 on soft agar (antagonist assay); assay type: cell-based, Pseudomonas aeruginosa; conditions: for Swarming of wild type PAO1: 110 μM in soft agar; for Effect on PAO1 swarming: concentration not given; for Concentration of activity reversal for swarming inhibition of PAO1 (transition concentration): soft agar
Procedure, shortened: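 Wild-type PAO1 culture (OD600 ~0.4–0.6, 3 μl) spotted on M8 swarm agar with 0.2% glucose, 0.5% casamino acids, 1 mM MgSO4 and 0.5% agar. Plates incubated 12 h at 37 °C then 12 h at room temperature; swarm area measured by cutting and weighing printed plate images.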

## CCCCCCCCCCCCOCCOCCOCCOCCO [C12EG4OH, tetra (ethylene glycol) monododecyl ether, reference compound]
PAO1 biofilm
  Anti-biofilm activity (biofilm inhibition): did not incur any bioactivity

## CCCCCCCCCCCCOS(=O)(=O)[O-].[Na+] [SDS, sodium dodecyl sulfate, reference compound]
PAO1 biofilm
  Anti-biofilm activity (biofilm inhibition): did not incur any bioactivity

## CC(C)CCCC(C)CCCC(C)CCO[C@H]1O[C@H](CO)[C@@H](O[C@@H]2O[C@H](CO)[C@@H](O)[C@H](O)[C@H]2O)[C@H](O)[C@H]1O (stereo partly drawn) [SFαC (13), saturated farnesyl-α-cellobioside]
Wild type PAO1; 85 μM in soft agar, 24 h
  Swarming motility of wild type PAO1: inhibited the swarming motility of wild type PAO1
Wild type PAO1; 24 h
  Swarming of wild type PAO1: completely inhibited the swarming of wt PAO1
Wild type PAO1
  Effect on PAO1 swarming: inhibitors for PAO1 swarming motility
PAO1 biofilm; 85 μM, agent alone
  Inhibition of PAO1 biofilm: about 70%
PAO1 biofilm; Example 2, FIG. 18
  IC50: ~32.3 µM
PAO1 biofilm; Example 4, FIG. 30
  IC50: ~32 µM
PAO1 biofilm
  Inhibition of PAO1 biofilm in presence of pili peptide PAO(128-144)ox: 30%
  Inhibition of PAO1 biofilm in presence of scrambled pili peptide: 65%
  Anti-biofilm activity (biofilm inhibition): potent PAO1 biofilm inhibitors
PAO1 biofilm; listed as 13: SFαC
  Inhibition of PAO1 biofilm in presence of pili peptide PAO(128-144)ox: exhibited no inhibition of PA biofilm
  Inhibition of PAO1 biofilm in presence of scrambled pili peptide: did not compromise the efficacy of the agent

## CC(C)CCCC(C)CCCC(C)CCO[C@@H]1O[C@H](CO)[C@@H](O[C@@H]2O[C@H](CO)[C@@H](O)[C@H](O)[C@H]2O)[C@H](O)[C@H]1O (stereo partly drawn) [SFβC (12), saturated famesyl-β-cellobioside]
Wild type PAO1
  Concentration exhibiting inhibition of PAO1 swarming: > 20 µM
  Concentration exhibiting promotion of PAO1 swarming: < 10 µM
  Effect on PAO1 swarming: inhibitors for PAO1 swarming motility
  Concentration of activity reversal for swarming inhibition of PAO1 (transition concentration): ~10 to 20 µM
Wild type PAO1; 20 μM
  Swarm ring of wild type PAO1 as percent of PAO1 without DSHs: ~5%
  Swarming motility of wild type PAO1: did inhibit the swarming activity of wild type PAO1
Wild type PAO1; 20 μM, control 24 cm2
  Swarm ring area of wild type PAO1: ~1.2 cm2
Wild type PAO1; 20 μM, listed as 12
  Swarming motility of wild type PAO1: stronger inhibition than rhamnolipids
Wild type PAO1; 85 μM in soft agar, 24 h
  Swarming motility of wild type PAO1: inhibited the swarming motility of wild type PAO1
Wild type PAO1; 24 h, listed as 12: SFbC
  Swarming of wild type PAO1: inhabits the swarming of wt PAO1
Wild type PAO1; 24 h, listed as 12: SFβC
  Swarming of wild type PAO1: completely inhibited the swarming of wt PAO1
Wild type PAO1; listed as 12
  Concentration of activity reversal for swarming inhibition of PAO1 (transition concentration): 10 to 20 µM
PAO1 biofilm; Example 2, FIG. 18
  IC50: 4.9 µM
PAO1 biofilm; Example 4, FIG. 30
  IC50: ~9.9 µM
PAO1 biofilm
  Anti-biofilm activity (biofilm inhibition): potent PAO1 biofilm inhibitors

## CC(C)CCCC(C)CCCC(C)CCO[C@@H]1O[C@H](CO)[C@@H](O[C@H]2O[C@H](CO)[C@@H](O)[C@H](O)[C@H]2O)[C@H](O)[C@H]1O (stereo partly drawn) [SFβM (14), saturated farnesyl-β-maltoside]
Wild type PAO1
  Concentration at which tendrils were induced in PAO1: ~7.5 µM
  Concentration of activity reversal for swarming inhibition of PAO1 (transition concentration): ~7.5 µM
Wild type PAO1; 20 μM
  Swarming motility of wild type PAO1: stronger inhibition than rhamnolipids
Wild type PAO1; 85 μM in soft agar, 24 h
  Swarming motility of wild type PAO1: inhibited the swarming motility of wild type PAO1
Wild type PAO1; 24 h
  Swarming of wild type PAO1: completely inhibited the swarming of wt PAO1
Wild type PAO1; listed as 14
  Concentration of activity reversal for swarming inhibition of PAO1 (transition concentration): 7.5 µM
PAO1 biofilm; Example 2, FIG. 18
  IC50: ~97.2 µM
PAO1 biofilm; Example 4, FIG. 30
  IC50: ~102 µM
PAO1 biofilm
  Anti-biofilm activity (biofilm inhibition): potent PAO1 biofilm inhibitors
